Test results as given in patent publication US9791444B2, “Method for differentially quantifying naturally processed HLA-restricted peptides for cancer, autoimmune and infectious diseases immunotherapy development” (IMMATICS BIOTECHNOLOGIES GMBH, priority 2010, dated 2017).

System: CD8+ T cells from HLA-A*24 healthy donors
Test: In vitro immunogenicity: in vitro priming of CD8+ T cells with pMHC/anti-CD28 coated beads (aAPC), A*2402 multimer staining
Format: cell-based, human
Conditions: HLA-A*2402 restricted, three stimulation cycles; for Positive wells/wells tested [%]: at least 24 wells evaluable for each peptide, positive well = at least 1% specific multimer+ among CD8+ and at least 10x median of negative controls; for Positive donors/donors tested [%]: at least two donors evaluable for each peptide
Text: To get information regarding the immunogenicity of the TUMAPs of the present invention, we performed investigations using a well established in vitro stimulation platform already described by (Walter, S, Herrgen, L, Schoor, O, Jung, G, Wernet, D, Buhring, H J, Rammensee, H G, and Stevanovic, S; 2003, Cutting edge: predetermined avidity of human CD8 T cells expanded on calibrated MHC/anti-CD28-coated microspheres, J. Immunol., 171, 4974-4978).
In order to perform in vitro stimulations by artificial antigen presenting cells (aAPC) loaded with peptide-MHC complex (pMHC) and anti-CD28 antibody, we first isolated CD8 T cells from fresh HLA-A*24 leukapheresis products of healthy donors obtained from the Blood Bank Tuebingen.
CD8 T cells were either directly enriched from the leukapheresis product or PBMCs (peripheral blood mononuclear cells) were isolated first by using standard gradient separation medium (PAA, Cölbe, Germany). Isolated CD8 lymphocytes or PBMCs were incubated until use in T-cell medium (TCM) consisting of RPMI-Glutamax (Invitrogen, Karlsruhe, Germany) supplemented with 10% heat inactivated human AB serum (PAN-Biotech, Aidenbach, Germany), 100 U/ml Penicillin/100 μg/ml Streptomycin (Cambrex, Cologne, Germany), 1 mM sodium pyruvate (CC Pro, Oberdorla, Germany), 20 μg/ml Gentamycin (Cambrex). 2.5 ng/ml IL-7 (PromoCell, Heidelberg, Germany) and 10 U/ml IL-2 (Novartis Pharma, Nürnberg, Germany) were also added to the TCM at this step. Isolation of CD8+ lymphocytes was performed by positive selection using CD8 MicroBeads (Miltenyi Biotec, Bergisch-Gladbach, Germany).
Generation of pMHC/anti-CD28 coated beads, T-cell stimulations and readout was performed as described before (Walter et al. 4974-78) with minor modifications. Briefly, biotinylated peptide-loaded recombinant HLA-A*2402 molecules lacking the transmembrane domain and biotinylated at the carboxy terminus of the heavy chain were produced. The purified costimulatory mouse IgG2a anti human CD28 Ab 9.3 (Jung, Ledbetter, and Muller-Eberhard 4611-15) was chemically biotinylated using Sulfo-N-hydroxysuccinimidobiotin as recommended by the manufacturer (Perbio, Bonn, Germany).
800.000 beads/200 μl were coated in 96-well plates in the presence of 600 ng biotin anti-CD28 plus 200 ng relevant biotin-pMHC (high density beads). Stimulations were initiated in 96-well plates by co-incubating 1×10^6 CD8+ T cells with 2×10^5 washed coated beads in 200 μl TCM supplemented with 5 ng/ml IL-12 (PromoCell) for 3-4 days at 37° C. Half of the medium was then exchanged by fresh TCM supplemented with 80 U/ml IL-2 and incubating was continued for 3-4 days at 37° C. This stimulation cycle was performed for a total of three times. Finally, multimeric analyses were performed by staining the cells with Live/dead-Aqua dye (Invitrogen, Karlsruhe, Germany), CD8-FITC antibody clone SK1 (BD, Heidelberg, Germany) and PE- or APC-coupled A*2402 MHC multimers. For analysis, a BD LSRII SORP cytometer equipped with appropriate lasers and filters was used. Peptide specific cells were calculated as percentage of total CD8+ cells. Evaluation of multimeric analysis was done using the FlowJo software (Tree Star, Oreg., USA).

Row | Sequence | Positive wells/wells tested [%] | Positive donors/donors tested [%]
1 | LYQILQGIVF (listed as Homo sapiens) [CDC2-001, gastric cancer associated TUMAP encoded by CDK1] | 28% | 88%
2 | AYAIIKEEL (listed as Homo sapiens) [ATAD2-001] | 4% | 50%
3 | SYNPLWLRI (listed as Homo sapiens) [ASPM-002, gastric cancer associated TUMAP encoded by ASPM] | 31% | 63%
4 | SYIDVLPEF (listed as Homo sapiens) [MET-006] | 22% | 63%
5 | NYLLYVSNF [MST1R-001] (listed as Homo sapiens) | 14% | 50%
6 | IYNGKLFDLL (listed as Homo sapiens) [KIF2C-001] | 2% | 13%
7 | NYEETFPHI (listed as Homo sapiens) [MUC6-001] | 21% | 50%
8 | VWSDVTPLTF [PROM1-001] | 26% | 83%
9 | NYLLYVSNF [MMP11-001] | 11% | 33%
10 | RYLWATVTI (listed as Homo sapiens) [ASPM-001] | 3% | 17%
11 | TYGNLLDYL (listed as Homo sapiens) [ABL1-001] | 13% | 50%
12 | VYKVVGNLL (listed as Homo sapiens) [IQGAP3-001] | 24% | 100%
13 | AYLVYTDRL (listed as Homo sapiens) [PPAP2C-001] | 54% | 100%
14 | FYISPVNKL (listed as Homo sapiens) [AVL9-001] | 50% | 100%
15 | VYTTSYQQI (listed as Homo sapiens) [NFYB-001] | 7% | 50%
16 | VFIFKGNQF (listed as Homo sapiens) [MMP3-001] | 1% | 13%
17 | HYKPTPLYF (listed as Homo sapiens) [SMC4-001] | 9% | 75%
18 | NYLPFIMEL (listed as Homo sapiens) [UCHL5-001] | 14% | 75%
19 | VFDTAIAHLF (listed as Homo sapiens) [SIAH2-001] | 4% | 50%
20 | KYNDTFWKEF (listed as Homo sapiens) [HSP90B1-001] | 4% | 50%
21 | QYASRFVQL (listed as Homo sapiens) [PLK4-001] | 5% | 60%
22 | VYIEKNDKL (listed as Homo sapiens) [ERBB3-001] | 15% | 83%
23 | RFLSGIINF (listed as Homo sapiens) [NUF2-002] | 4% | 50%
24 | YYNAAGFNKL (listed as Homo sapiens) [UQCRB-001] | 38% | 100%
25 | VYGIRLEHF (listed as Homo sapiens) [NUF2-001] | 25% | 100%
